Series [1] has as its system mice with intrafemoral Lewis lung carcinoma (LLC). Briefly: LLC bone cancer pain model, systemic (i.p.) treatment, behavior tests and body weight. The format is in vivo, mouse. As to conditions: for spontaneous and ongoing pain (flinching, guarding): d14; for body weight / cancer-induced cold allodynia / cancer-induced mechanical allodynia (paw withdrawal threshold): twice i.p.; for cancer-induced mechanical allodynia (paw withdrawal threshold): DMXAA, ADU-S100 20 mg/kg, ZA 100 μg/kg; for acute effect on bone cancer pain: d11, 4 h after single i.p. injection. How it is done:
Bone cancer pain model. The murine cell lines LLC1, LL/2-Luc2 or E0771 were lightly digested using 0.05% trypsin, followed by centrifugation to remove poorly digested cell clusters. Cells were then resuspended in PBS at a concentration of 1×10^8 cells/ml. The inoculation was performed as previously described (Wang, K. et al. “PD-1 blockade inhibits osteoclast formation and murine bone cancer pain.” The Journal of clinical investigation, (2020); Wang, Z. et al. “Anti-PD-1 treatment impairs opioid antinociception in rodents and nonhuman primates.” Sci Transl Med 12 (2020)). Briefly, mice were anesthetized with 4% isoflurane and the left leg was shaved and the skin disinfected with 10% povidone-iodine and 75% ethanol. A superficial incision (0.5-1 cm) was made near the knee joint, exposing the patellar ligament. […] The syringe contents were slowly injected into the femoral cavity over a 2-minute interval. To prevent further leakage of tumor cells outside of the bone cavity, the outer injection site was sealed with silicone adhesive (Kwik-Sil, World Precision Instruments, US). Animals with surgery related movement dysfunction or with outside bone tumor injection were excluded from the study. Drug treatment. […] All other reagents were dissolved in sterile saline or PBS. For experiments utilizing rabbit anti-IFN-α or -β neutralizing antibodies, a polyclonal rabbit IgG antibody served as the control. […] Behavior tests. All the behavioral tests were conducted in a blinded manner and performed during between the hours of 9:00-16:00. Animals were habituated in a light and humidity controlled testing environment for at least 2 days prior to baseline testing. For Von Frey testing, mice were confined to individual 5×5 cm boxes placed on an elevated wire grid. A blinded experimenter stimulated their hindpaws using a series of von Frey filaments with logarithmically increasing stiffness (0.02-2.56 g, Stoelting). Each filament was applied perpendicularly to the central plantar surface. The 50% paw withdrawal threshold was determined using Dixon's up-down method.

Series [2] concerns mice with LLC bone cancer pain (BCP). The experiment in a line: Syngeneic bone cancer pain (BCP) model, i.t. treatment. The format is in vivo, mouse. How it is done:
Mouse pain models: The chemotherapy-induced peripheral neuropathy (CIPN) model of chronic neuropathic pain was established as we have done previously, using 8-10-week-old CD-1 (strain #022, Charles River) mice injected with paclitaxel (2 mg/kg i.p.) every other day, with 4 injections total. The chronic constriction injury (CCI) model of neuropathic pain was also produced using 8-10-week-old CD-1 under isoflurane anesthesia. Briefly, the right sciatic nerve was exposed above the hip and two ligatures (7-0 Prolene) were placed around the nerve 1 mm apart located proximal to the trifurcation. Ligatures were loosely tied until a subtle flick of the ipsilateral hind limb was observed. CD-1 mice were also used to establish the SNI model, which was generated by tightly ligating the tibial and common peroneal nerves followed by transection and removal of a ˜3 mm portion of the nerve. The sural nerve was left intact and contact or stretching of this nerve was avoided . To establish the syngeneic bone cancer pain (BCP) model, 8-10-week-old C57BL/6J mice (strain #000664, Jackson Labs) were utilized, as the Lewis lung carcinoma cell line LLC1 (LL/2; ATCC CRL-1642) was originally generated in C57BL/6J mice. Mice were anesthetized with isoflurane and the left leg was shaved, disinfected with 10% povidone-iodine, and a 1 cm superficial incision was made to expose the patellar ligament. A 25-gauge needle was inserted at the intercondylar notch of the left femur into the femoral cavity, followed by needle replacement with a 10 μl Hamilton syringe microinjector containing a 2 μl suspension of LLC cells (2×10^5 cells) followed by a 2 μl gelatin sponge solution to enable closure of the injection site. All mice were housed and monitored in accordance with AAALAC standards and Duke IACUC guidelines that pertained to each model.
Reflexive-based sensory testing in mice: All behavioral testing in mice was performed in a specialized humidity- and light-controlled mouse behavior facility maintained at 21-24° C., with testing conducted between the hours of 8:00-16:00. Mice were habituated to the testing environment for at least 2 days prior to baseline testing. All tests were performed by an experimenter who was blinded to experimental conditions, including genotypes and drug treatment. For multi-day experiments using STING agonists, mice were tested in the same room at approximately the same time each day. To measure mechanical sensitivity, mice were confined to individual chambers with non-transparent borders on an elevated mesh rack, preventing mice from visualizing or interacting with one another during the testing period. […] We determined the 50% paw withdrawal threshold using the up-down method. […]

“Also recorded” adds a separate entry of the source.

Take `Nc1ncnc2c1ncn2[C@@H]1O[C@@H]2COP(=O)([S-])O[C@@H]3[C@H](O)[C@@H](COP([O-])(=S)O[C@H]2[C@H]1O)O[C@H]3n1cnc2c(N)ncnc21.[Na+].[Na+]` (stereo partly drawn) [ADU-S100, (2′-5′)-[P(R)]-5′-O-[(R)-hydroxymercaptophosphinyl]-P-thioadenylyl-adenosine cyclic dinucleotide]: in series [1] (LLC model), the “spontaneous and ongoing pain (flinching, guarding)” value was “exhibited reduced spontaneous and ongoing pain”; the body weight result was “no effect on overall body weight”; the cancer-induced cold allodynia result was “reduced cold allodynia on both d10 and d14”; the “cancer-induced mechanical allodynia (paw withdrawal threshold)” value was “could significantly attenuate mechanical allodynia in both measures on d10 and d14”. Moreover, the “withdrawal frequency to low-threshold stimulation (0.16 g Von Frey filament)” value in series [1] (LLC model, i.p. at d3 and d10) is “could significantly attenuate mechanical allodynia in both measures on d10 and d14”. Also, in series [1], the “acute effect on bone cancer pain” value is “substantial reduction in mechanical allodynia, cold allodynia, and spontaneous pain”. Also, in series [2], the cold allodynia result is “suppressed cold allodynia” and the tumor burden result is reported as “tumor burden was unaffected”.

As for `Cc1ccc2c(=O)c3cccc(CC(=O)O)c3oc2c1C` [DMXAA, 2-(5,6-dimethyl-9-oxo-9H-xanthen-4-yl)acetic acid], in series [1] (20 mg/kg i.p. d3 and d7), the “mechanical and cold allodynia, WT and Rag1^−/−” value was “reduced by DMXAA treatment in both WT and Rag1^−/− mice at early stages (7 d and 10 d), but not at later stages”; the “mechanical and cold allodynia, WT vs Ifnar1^−/−” value was “effectively attenuated cancer-induced mechanical allodynia and cold allodynia in WT mice but not Ifnar1^−/− mice”; the “mechanical and cold allodynia, WT vs STING^gt/gt” value was “significantly attenuated mechanical and cold allodynia in WT mice, and this effect was abolished in STING^gt/gt mice”; the “mechanical or cold allodynia in Batf3^−/− mice” value was “could attenuate mechanical allodynia or cold allodynia in Batf3^−/− mice on d7 and d10 but not day 14”. In addition, the “acute effect on mechanical and cold allodynia, WT vs STING^gt/gt or Ifnar1^−/−” value in series [1] (20 mg/kg i.p., 4 h) is “could reduce mechanical allodynia and cold allodynia in WT mice but not in STING^gt/gt mice or Ifnar1^−/− mice”. In addition, in series [1] (LLC model), the “spontaneous and ongoing pain (flinching, guarding)” value is “attenuated measures of spontaneous and ongoing pain”; the body weight entry is reported as “no differences in body weight; also recorded: did not see body weight changes”; the cancer-induced cold allodynia entry is given as “significantly reduced”; the “cancer-induced mechanical allodynia (paw withdrawal threshold)” value is “significantly reduced mechanical allodynia on d7, d10 and d14”. Besides, the “acute effect on bone cancer pain” value in series [1] was “substantial reduction in mechanical allodynia, cold allodynia, and spontaneous pain”. Further, the “acute antinociceptive effects, WT vs Ifnar1-cKO” value in series [1] (single 20 mg/kg i.p.) is “present in WT, but not Ifnar1-cKO littermates”. Further, in series [2], the cold allodynia result is “suppressed cold allodynia” and the tumor burden entry is listed as “tumor burden was unaffected”.

The values above are taken from patent US20230158057A1, “COMPOSITIONS AND METHODS FOR THE TREATMENT OF PAIN” (Duke University, priority 2020, published 2023).
